These results are taken from patent US20250082766A1, “TREATMENT OF BRAIN TUMORS BY TARGETING THE CHOLESTEROL PATHWAY IN ASTROCYES” (Ramot at Tel-Aviv University Ltd., priority 2022, published 2025).

In assay [1] the test system is GL261 and CT-2A glioma cells. Put plainly: Cell viability assay (Annexin V/DAPI FACS) of glioma cells. Format: cell-based, mouse. Set-up: glioma viability: dose or concentration left out as unconfirmed. The conditions noted are these: lovastatin, 3 day treatment; CT-2A and GL261; FIGS. 11G-H. Here is the method:
FIGS. 5A-N illustrate that astrocyte-derived cholesterol supports glioma survival. (FIGS. 5A-D) Real-time changes in the ECAR (FIGS. 5A-B) and oxygen consumption rate (OCR) (FIGS. 5C-D) of GL261 glioma cells, cultured in media supplemented with full serum (FCS, fetal calf serum) or lipoprotein-deprived serum (LPDS, Lipoprotein-deficient serum) for 18 hours and measured using Seahorse. Oligo, oligomycin; FCCP, carbonyl cyanide4-(trifluoromethoxy) phenylhydrazone; R/A, rotenone plus antimycin A; 2-DG, 2-deoxy-d-glucose. Glycolysis, glycolytic capacity and glycolytic reserve were extracted from the ECAR reading, and basal respiration, adenosine triphosphate (ATP) production, Maximal respiration, and spare respiratory capacity were determined based on OCR. Data are representative of two independent experiments (n=6 technical replicates per experiment). (FIG. 5E) Percentage of cell death of GL261 and CT-2A glioma cells, or primary astrocytes, cultured in FCS or LPDS for 5 days; as determined by Annexin-V assay (n=5 independent experiments). […] Representative flow cytometry plots of Annexin-V/DAPI staining from each group are shown in FIG. 5F and quantification analyses of cholesterol rescue are in FIG. 5G (n=5 biologically independent experiments). (FIGS. 5H-K) Representative images and quantification of LDLR expression (Immunoblot, FIGS. 5H-I) and cell death via FACS analysis of Annexin V/DAPI staining (FIGS. 5J-K) in response to endogenous LXR agonists (24-OHC) or Mock (DMSO) treatment in GL261 and CT-2A cells (n=3 biologically independent experiments). […] (FIGS. 5L-M) Representative flow cytometry plots of murine GL261 and CT-2A glioma cells co-cultured for 5 days with primary mouse astrocytes are shown in FIG. 5L and quantification analyses in FIG. 5M (n=4 biologically independent experiments). (FIG. 5N) quantification analyses of human U87EGFRvIII (U87) glioma cells co-cultured with human primary astrocytes for 5 days (n=3 biologically independent experiments). […]

The test system of assay [2] is primary astrocytes. Put plainly: Cell viability assay (Annexin V/DAPI FACS) of primary astrocytes. The following applies: lovastatin, 3 day treatment; FIGS. 11G-H. The arrangement: dose or concentration left out as unconfirmed. Format: cell-based, mouse. The source says:
FIGS. 11A-K illustrate that astrocyte-derived cholesterol supports glioma survival. (FIG. 11A) Representative immunofluorescence images of cholesterol accumulation (Filipin III, white) in the GBM tumor (tdTomato^+ GL261 cells, red), Tumor margins are indicated in yellow (n=3 biologically independent samples). Scale bars, 400 μm (right), 150 μm (left). (FIGS. 11B-E) Real-time changes in the ECAR (FIGS. 11B-C) and OCR (FIGS. 11D-E) of CT-2A glioma cells, cultured in media supplemented with full serum (FCS) or lipoprotein-deprived serum (LPDS) for 18 hours and measured using Seahorse. […] Glycolysis, glycolytic capacity and glycolytic reserve are extracted from ECAR reading, and basal respiration, ATP production, Maximal respiration, and spare respiratory capacity were determined based on OCR. […] (FIGS. 11I-J) Representative immunoblot and quantification analyses comparing LDLR protein levels in with CT-2A and GL261 cells cluttered for 2 days in FCS or LPDS supplemented media. […] P values were determined by two-sided Student's t-tests (FIGS. 11B-E and 11I-K) or by one-way ANOVA, followed by Fisher's LSD post-hoc analysis (FIGS. 11G-H). *P<0.05, **P<0.01, ***P<0.001.
GL261, CT-2A, or astrocytes were seeded at a density of 1.5×10^5 cells per well in a 6-well plate. […] Microglial cell death was determined by LDH Assay (Sigma-Aldrich, #4744934001) according to the manufacturer's instructions. […]

In assay [3] the test system is GL261 glioma (GBM). Put plainly: Primary GBM model: GL261 intracranially implanted mice treated with Probucol. The conditions noted are these: for tumor growth (IVIS): Probucol 30 mg/kg daily from day 10 (quarter of HED) vs vehicle, FIG. 16B. Format: in vivo, mouse. Here is the method: (FIG. 16A) Illustration of the experimental design for primary and recurrent GBM models. (FIGS. 16B-D) WT mice were intracranially (IC) implanted with GL261 cells. Tumor-bearing mice were treated daily, starting at day 10, with Probucol (30 mg/kg) or vehicle. (FIG. 16B) Tumor growth curve as determined by IVIS, (FIG. 16C) mice weight loss, and (FIG. 16D) Kaplan-Meier curves assess overall survival. p-value by Two-way ANOVA. Data represent Mean±SEM, 8 mice/group. (FIG. 16E) Illustration of the predicted effects of probucol or glyburide in the different models/disease stages.
For intracranial mouse glioma, mice were anesthetized, positioned in a Stereotaxic Alignment System, and injected with 1.5×10^4 GL261 or CT-2A cells in 2 μl of DMEM. Injections were made to the right frontal lobe, approximately 2.5 mm lateral and 0.1 mm caudal from bregma at a depth of 3 mm. In-vivo bioluminescence imaging, following XenoLight D-luciferin Potassium Salt administration (150 mg/kg) i.p. administration, was determined using IVIS Spectrum system (PerkinElmer). Ganciclovir (GCV, Cymevene, Roche #SAP-10051872; 25 mg/kg), Diphtheria-toxin (DT, Sigma-Aldrich, #D0564; 1100 ng/mice), or vehicle control (PBS) were administered daily following tumor establishment (day 10), as previously described (Mayo, L., et al. Nat Med (2014) 20: 1147-1156). CD8^+ T cell depletion was performed using an anti-CD8 monoclonal antibody ([…], Bioxcell) or an isotype control monoclonal antibody (2A3, Bioxcell), as previously described (Takenaka, M. C. et al. Control of tumor-associated macrophages and T cells in glioblastoma via AHR and CD39. Nat Neurosci 22, 729-740 (2019)). GBM-bearing mice were intraperitoneally injected (0.1 mg/mouse) with an anti-CD8 or an isotype control mAbs, 1 day before, and 7 days after, GCV administration. CD8 T-cell depletion was validated by FACS analysis using a Sony SH800 FACS instrument (Sony Biotechnology). Data analysis was performed using FlowJo v10 (TreeStar, USA). The following reagents were used for analysis: anti-CD45 (1:100; 30-F11, Biolegend, #103106), anti-CD3[…] (1:50; 145-2C11, Biolegend #100335), and anti-CD8a (1:100; 53-6.7, Biolegend, #100765).
To investigate this hypothesis, C57Bl/6 mice are implanted with GFP^+ luciferase-expressing glioma cells (GL261 or CT-2A), using two subtype models—primary or recurrent GBM/brain tumor resection (as illustrated in FIG. 16A), and are treated daily with probucol, glyburide, or vehicle control, with or without a potent statin (e.g., simvastatin as shown in FIG. 15A). The dosage of the different drugs is optimized based on FDA guidelines for conversions from human-accepted dosages (Table 5 below).
In the primary GBM model (pGBM)—10 days after tumor implantation, the mice are treated with cholesterol-lowering drugs (FIG. 16A). In the recurrent GBM model (rGBM), 12-14 days after inoculation of the mice with the tumor cells, the visible tumor(s) are surgically removed, based on GFP expression, under a stereoscope. The mice are then allowed to recover for a week and then are treated with cholesterol-lowering drugs (FIG. 16A). Of note, tumor formation or recurrence is monitored by bioluminescence (BLI) signals from the tumor cells on in-vivo imaging system (IVIS) spectrum and quantified with Living Image software. Mice are monitored for tumor growth, peritumoral brain edema formation, and mouse survival until the experimental endpoint (extreme lethargy or body weight reduction of greater than 20%), or are euthanized seven days after treatment with the cholesterol-lowering drugs to assess tumor burden, angiogenesis, BBB stability, and immunomodulatory activity in-situ. Tumor volume is evaluated in-vivo by determining tumor BLI, and by histopathology analysis postmortem. Peritumoral brain edema is evaluated in-vivo using IVISense™ Edema (Superhance™ 680) fluorescent probe. […]

In assay [4] the test system is GL261-Luc2 glioma (GBM). Description: GL261-Luc2 implanted mice treated with probucol, TMZ or both. Format: in vivo, mouse. The conditions noted are these: FIGS. 20A-C.
Procedure: WT mice were IC implanted with GL261-Luc2 cells. […] (FIG. 20A) Tumor growth curve as determined by IVIS, (FIG. 20B) mice weight loss, and (FIG. 20C) Kaplan-Meier curves assess overall survival. p-value by Two-way ANOVA. Data represent Mean±SEM, 8 mice/group.
For intracranial mouse glioma, mice were anesthetized, positioned in a Stereotaxic Alignment System, and injected with 1.5×10^4 GL261 or CT-2A cells in 2 μl of DMEM. Injections were made to the right frontal lobe, approximately 2.5 mm lateral and 0.1 mm caudal from bregma at a depth of 3 mm. In-vivo bioluminescence imaging, following XenoLight D-luciferin Potassium Salt administration (150 mg/kg) i.p. administration, was determined using IVIS Spectrum system (PerkinElmer). Ganciclovir (GCV, Cymevene, Roche #SAP-10051872; 25 mg/kg), Diphtheria-toxin (DT, Sigma-Aldrich, #D0564; 1100 ng/mice), or vehicle control (PBS) were administered daily following tumor establishment (day 10), as previously described (Mayo, L., et al. Nat Med (2014) 20: 1147-1156). CD8^+ T cell depletion was performed using an anti-CD8 monoclonal antibody (53.6-7, Bioxcell) or an isotype control monoclonal antibody (2A3, Bioxcell), as previously described (Takenaka, M. C. et al. Control of tumor-associated macrophages and T cells in glioblastoma via AHR and CD39. Nat Neurosci 22, 729-740 (2019)). GBM-bearing mice were intraperitoneally injected (0.1 mg/mouse) with an anti-CD8 or an isotype control mAbs, 1 day before, and 7 days after, GCV administration. CD8 T-cell depletion was validated by FACS analysis using a Sony SH800 FACS instrument (Sony Biotechnology). Data analysis was performed using FlowJo v10 (TreeStar, USA). The following reagents were used for analysis: anti-CD45 (1:100; 30-F11, Biolegend, #103106), anti-CD3□ (1:50; 145-2C11, Biolegend #100335), and anti-CD8a (1:100; 53-6.7, Biolegend, #100765).
Assay [5] concerns the target cholesterol transporter ABCA1 (Homo sapiens, UniProt O95477). The conditions noted are these: cited from earlier work.
[6] abbreviates: summary statement on ABCA1 inhibitors, FIGS. 16A-E.

“Also recorded” adds a separate entry of the source.

cholesterol transporter ABCA1, sequence (O95477 whole entry): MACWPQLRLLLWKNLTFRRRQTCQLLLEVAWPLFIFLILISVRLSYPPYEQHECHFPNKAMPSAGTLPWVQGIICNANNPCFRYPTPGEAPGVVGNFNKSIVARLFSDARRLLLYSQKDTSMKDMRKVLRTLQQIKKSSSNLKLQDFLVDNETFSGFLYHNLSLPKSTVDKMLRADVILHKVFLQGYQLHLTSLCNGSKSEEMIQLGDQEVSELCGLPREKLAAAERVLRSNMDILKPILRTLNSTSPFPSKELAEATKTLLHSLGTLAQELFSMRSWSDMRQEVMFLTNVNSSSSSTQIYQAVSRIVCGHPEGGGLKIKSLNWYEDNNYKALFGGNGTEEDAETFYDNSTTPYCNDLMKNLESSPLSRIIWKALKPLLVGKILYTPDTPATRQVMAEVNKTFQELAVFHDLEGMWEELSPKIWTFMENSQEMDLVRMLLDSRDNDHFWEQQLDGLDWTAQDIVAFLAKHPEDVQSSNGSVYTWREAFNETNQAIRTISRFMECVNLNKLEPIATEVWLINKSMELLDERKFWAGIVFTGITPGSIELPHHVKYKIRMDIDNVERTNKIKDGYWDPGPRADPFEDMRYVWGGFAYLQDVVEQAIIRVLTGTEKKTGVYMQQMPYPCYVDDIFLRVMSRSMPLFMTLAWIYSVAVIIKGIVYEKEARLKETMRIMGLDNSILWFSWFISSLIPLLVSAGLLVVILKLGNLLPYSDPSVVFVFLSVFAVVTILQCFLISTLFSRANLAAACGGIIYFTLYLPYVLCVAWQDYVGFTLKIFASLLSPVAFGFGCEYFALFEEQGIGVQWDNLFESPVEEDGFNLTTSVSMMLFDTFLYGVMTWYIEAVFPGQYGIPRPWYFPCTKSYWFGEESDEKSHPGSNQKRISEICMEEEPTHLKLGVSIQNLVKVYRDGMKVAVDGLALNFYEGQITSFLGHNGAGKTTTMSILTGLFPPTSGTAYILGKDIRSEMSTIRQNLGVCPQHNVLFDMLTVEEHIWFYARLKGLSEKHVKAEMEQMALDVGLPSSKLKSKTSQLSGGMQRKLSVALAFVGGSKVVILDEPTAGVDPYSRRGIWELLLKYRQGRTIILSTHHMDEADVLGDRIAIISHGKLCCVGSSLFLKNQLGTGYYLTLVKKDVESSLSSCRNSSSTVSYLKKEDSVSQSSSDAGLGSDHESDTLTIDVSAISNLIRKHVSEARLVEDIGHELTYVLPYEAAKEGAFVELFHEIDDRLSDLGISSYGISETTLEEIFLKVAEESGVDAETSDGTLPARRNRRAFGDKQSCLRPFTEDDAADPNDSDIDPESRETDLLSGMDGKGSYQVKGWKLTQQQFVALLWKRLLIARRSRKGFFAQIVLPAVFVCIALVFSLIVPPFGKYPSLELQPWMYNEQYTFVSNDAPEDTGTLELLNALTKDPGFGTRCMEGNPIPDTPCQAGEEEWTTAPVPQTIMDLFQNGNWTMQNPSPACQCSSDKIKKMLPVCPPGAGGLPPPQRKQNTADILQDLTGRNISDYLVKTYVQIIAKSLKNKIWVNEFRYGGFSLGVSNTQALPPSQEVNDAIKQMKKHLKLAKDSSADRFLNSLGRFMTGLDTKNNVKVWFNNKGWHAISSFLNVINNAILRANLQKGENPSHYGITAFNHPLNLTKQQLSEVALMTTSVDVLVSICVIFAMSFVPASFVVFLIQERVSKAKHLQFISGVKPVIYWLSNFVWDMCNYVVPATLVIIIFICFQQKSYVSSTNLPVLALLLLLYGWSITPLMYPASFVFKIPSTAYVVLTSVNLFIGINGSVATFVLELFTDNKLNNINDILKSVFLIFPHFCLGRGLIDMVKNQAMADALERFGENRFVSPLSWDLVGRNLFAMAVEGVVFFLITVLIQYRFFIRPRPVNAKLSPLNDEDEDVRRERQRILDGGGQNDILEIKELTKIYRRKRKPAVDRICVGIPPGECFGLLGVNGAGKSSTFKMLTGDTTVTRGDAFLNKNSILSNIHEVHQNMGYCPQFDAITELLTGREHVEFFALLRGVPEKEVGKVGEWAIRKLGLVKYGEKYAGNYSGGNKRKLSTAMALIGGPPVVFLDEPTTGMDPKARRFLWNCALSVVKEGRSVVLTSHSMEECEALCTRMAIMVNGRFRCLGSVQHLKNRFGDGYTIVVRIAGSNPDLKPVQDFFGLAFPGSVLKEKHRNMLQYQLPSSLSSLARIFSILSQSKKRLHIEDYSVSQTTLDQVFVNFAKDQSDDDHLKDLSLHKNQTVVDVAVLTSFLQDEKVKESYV

Regarding `CC[C@H](C)C(=O)O[C@H]1C[C@@H](C)C=C2C=C[C@H](C)[C@H](CC[C@@H]3C[C@@H](O)CC(=O)O3)[C@H]21` [lovastatin, Lovastatin], the glioma viability entry in assay [1] was “did not affect glioma viability”. The “cell death of primary astrocytes” value in assay [2] is given as “significant cell death of primary astrocytes”.
Turning to `CC(C)(Sc1cc(C(C)(C)C)c(O)c(C(C)(C)C)c1)Sc1cc(C(C)(C)C)c(O)c(C(C)(C)C)c1` [Probucol], the “tumor growth (IVIS)” value in assay [3] (GL261-bearing WT mice) is listed as “attenuates GBM progression”. In addition, the “tumor growth (IVIS)” value in assay [3] (GL261-bearing WT mice, listed as probucol) is listed as “significantly attenuated”. In assay [3] (GL261-bearing WT mice, Probucol 30 mg/kg daily from day 10 vs vehicle, FIG. 16C), the “weight loss associated with tumor burden” value is listed as “significantly attenuated”. The “survival (Kaplan-Meier)” value in assay [3] (GL261-bearing WT mice, Probucol 30 mg/kg daily from day 10 vs vehicle, FIG. 16D) was “improved”. In assay [3] (setting [6]), the “survival of subjects having GBM in-vivo” value is “prolonging survival”, the “tumor size of subjects having GBM in-vivo” value was “decreasing tumor size” and the “weight loss of subjects having GBM in-vivo” value is reported as “preventing weight loss”. Also, in assay [4] (probucol 30 mg/kg combined with TMZ 2.5 mg/kg, GL261-Luc2 bearing mice), the “therapeutic effect (potency) of TMZ” value was “enhances the potency of TMZ therapeutic; also recorded: dramatically enhanced the therapeutic effect of TMZ”. For the same compound, the GBM pathogenicity entry in assay [4] (probucol 30 mg/kg, limited course (two days before, during and two days after TMZ course), from day 10) was “able to halt GBM pathogenicity”. Further, the ABCA1 inhibitor potency result in assay [5] is recorded as “strong”.
